# Results as given in patent publication US9060997B2, “Antifolate compounds for the treatment of melanoma” (UNIVERSIDAD DE MURCIA, priority 2007, dated 2015).
# Assays:
# [1] = test system: Caspase-3; assay: Caspase-3 colorimetric activity assay; assay type: cell-based, human; settings: SkMel-28, 50 μM, 7 days
# Experimental: Cells were treated for 7 days with 50 μM TMECG. Caspase-3 activity was determined in the absence or the presence of […]. The results are expressed as the mean±SD of three cultures.
# Caspase-3 activity in the SkMel-28 cells was measured using the caspase-3 colorimetric activity assay kit (Sigma). Briefly, the cells were washed with cold PBS and lysed with cell lysis buffer included in the kit. The cell lysates were centrifuged (10,000 g for 5 min at 4° C.), and the supernatants were collected. Equal amounts of protein (100 μg), 30 μg of colorimetric caspase-3 substrate (acetyl-Asp-Glu-Val-Asp p-Nitroanilide; Ac-[…]-pNA) and assay buffer were added to each reaction mix, which were then incubated for 4 h at 37° C. Caspase-3 activity was determined by measuring the absorbance at 405 nm. One unit of caspase-3 activity was expressed as 1 pmol of pNA formed per hour, and its specific activity was that unit divided by micrograms of protein. Caspase-3 inhibitor ([…]) was used as negative control.
# [2] = test system: Caspase-3 mRNA; assay: Caspase-3 mRNA expression (real-time PCR); assay type: cell-based, human; settings: SkMel-28, 50 μM, 7 days
# Experimental: Histograms compare the estimated relative levels of the mRNA with respect to that of β-actin. Values represent the number of copies of mRNA per each 1×10^6 copies of β-actin.
# cDNA samples (1 μL) were used for real-time PCR in a total volume of 20 μL using SYBR Green Reagent (Applied Biosystems) and specific primers on a 7500 Real Time PCR System of Applied Biosystems. The PCR amplification cycles included denaturation 95° C., 15 min; to activate HotStar Taq DNA polymerase and to minimize primer-dimer contribution), and amplification [over 40-50 cycles including denaturation (94° C.; 30 s), annealing (55° C.; 30 s), and extension (72° C.; 1 min)]. All PCR reactions were performed in triplicate and from at least two independent experiments. Non-RT control and negative control samples (without template) were processed in the same manner. The specificity of the amplification was verified by melting curve analysis for all samples, and occasionally by agarosa gel electrophoresis. Amplification of target gene sequences were compared against serial dilutions of know quantities of their purified cDNA fragments, and normalized to the abundance of the house-keeping gene β-actin.
# [3] = biological target: T1, rHDHFR (Homo sapiens, UniProt P00374); assay: rHDHFR binding: fluorescence titration and stopped-flow fluorescence
# T1 construct: purchased Sigma
# T1 sequence (P00374 1-187): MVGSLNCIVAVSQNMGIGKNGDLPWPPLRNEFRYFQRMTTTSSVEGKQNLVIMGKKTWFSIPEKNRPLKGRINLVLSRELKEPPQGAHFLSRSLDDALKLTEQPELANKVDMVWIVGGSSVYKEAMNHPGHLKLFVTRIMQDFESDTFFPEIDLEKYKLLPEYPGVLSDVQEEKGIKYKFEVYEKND
# Experimental: The experiments were carried out in a buffer containing 2-(N-morpholino)ethanesulfonic acid (Mes, 0.025 M), sodium acetate (0.025 M), tris-(hydroxymethyl)aminomethane (Tris 0.05 M), and NaCl (0.1 M) at pH 7.4 and 25° C. in the presence of QM and rHDHFR (0.5 μM).
# Stopped-flow fluorescence experiments were carried out at pH 7.4 and 25° C. using an enzyme concentration of 0.25 μM. The reaction of rHDHFR with inhibitors was observed under pseudo-first order conditions by fluorescence at 340 nm (excitation at 290 nm). The data points s are the means of at least 3 (normally 5) repeat observations±SD. […] Aliquots (20 μl) of the incubation mixture was then diluted 50-fold into a reaction mixture containing the buffer, NADPH (100 μM), and DHF (10 μM) to give a final enzyme concentration of 1.5 nM.
# (§1) The activity of rHDHFR was determined at 25° C. by following the decrease in the absorbance of NADPH and DHF at 340 nm (ε=11800 M-1 cm−1) (Stone and Morrison, 1986). Progress curves were obtained under ordered conditions ([NADPH]>>[DHF]). rHDHFR inhibition constants were calculated as described by Navarro-Perán et al., 2005b. The dissociation constant for the binding of inhibitors to free rHDHFR was determined at 25° C. by fluorescence titration in an automatic-scanning Perkin-Elmer LS50B spectrofluorimeter. Fluorescence emission spectra were recorded when rHDHFR fluorescence was excited at 290 nm. Stopped-flow fluorescence experiments were carried out using an Applied Photophysics Ltd. Pi-Star 180 spectrometer with a stopped-flow unit at 25° C.
# [4] = test system: MCF7 cells; assay: MTT cell proliferation assay, MCF7; assay type: cell-based; settings: Homo sapiens, 144 h; MCF7, 6 days of treatment
# Experimental: Four human cancer cells lines (SkMel-28, MCF7, H1264 and Caco-2) were obtained from the American Type Tissue Culture Collection (ATCC) and were maintained in appropriate culture mediums supplemented with 10% fetal calf serum (FCS) and antibiotics, under standard tissue culture conditions (e.g. modified Eagle's medium (MEM) containing 1 mM sodium pyruvate and 10% fetal bovine serum (FES) under 5% CO2/95% air atmosphere.). Cell injury was evaluated by a colorimetric assay for mitochondrial function using the 3-(4,5-dimethylthiazolyl-2)-2,5-diphenyltetrazolium bromide (MTT) cell proliferation assay. For this assay cells were plated in a 96-well plate at a density of 1000 cells/well and grown until they reached 50-60% confluence. Human epidermal melanocytes (HeM) were supplied by Gentaur and were cultured in HAM-F10 medium supplemented with 10% FCS, antibiotics and the human melanocyte growth supplement (Gentaur).
# [5] = test system: SkMel-28 cells; assay: Microscopy of melanosome melanin content; assay type: cell-based, human; settings: treated SkMel-28 versus untreated
# Experimental: Confluent monolayers of SkMel-28 were harvested with a mixture of 0.05% trypsin, 0.53 mmol/L EDTA and washed once in 0.25 mol/L sucrose by centrifugation at 700×g for 5 min at 4° C. They were then homogenized on ice using 20 strokes of an ice-cold Dounce homogenizer and centrifuged at 700×g for 10 min at 4° C. The resultant postnuclear supernatant was centrifuged at 17,000×g for 15 min at 4° C. to yield a melanosome-enriched granular fraction (17). This fraction was resuspended in 0.5-2 ml of ice-cold 0.25 mol/L sucrose, 10 mmol/L HEPES, pH 7.0 and fixed for 1 h at room temperature in 2% glutaraldehyde, 2% paraformaldehyde in 0.1 mol/L sodium cacodylate buffer, pH 7.3. The fixative was then removed and the samples stored in PBS containing 4% sucrose at 4° C. Samples were subsequently dehydrated with graded alcohols and embedded in epoxy resin. This section were stained with uranyl acetate and lead citrate and examined with a Zeiss EM10 electron microscope.
# [6] = biological target: T1, rHDHFR; assay: rHDHFR inhibition, progress curves; assay type: biochemical
# Experimental: The experiments were carried out in the same buffer as fluorescence experiments in the presence of NADPH (100 μM), DHF (10 μM), and rHDHFR (1.5 nM).
# as §1
structure (smiles),measurement,setting,value
"COc1cc(C(=O)O[C@@H]2Cc3c(O)cc(O)cc3O[C@@H]2c2ccc(O)c(O)c2)cc(OC)c1OC [TMECG, 3-O-(3,4,5-trimethoxybenzoyl)-(−)-epicatechin]",caspase-3 activity,[1],significantly higher caspase-3 activity
same,"Caspase-3 mRNA, higher than in HeM or untreated SkMel-28",[2],around 30 times
same,koff,"[3]; calculated from KI=koff/kon, read-out: koff",0.29 s⁻¹
same,Ki,"[3]; dissociation constant, free rHDHFR, fluorescence titration, pH 7.4, 25° C.",2.1 µM
same,kon,"[3]; stopped-flow fluorescence, pH 7.4, 25° C., read-out: kon",140000 M⁻¹ s⁻¹
same,IC50,[4],80 µM
same,melanosome melanin content,[5],much less melanin content
same,Decrease % further EI reactions,[6]; decrease of KI to KI* by further EI-complex reactions,19 −fold
same,Ki,[6]; read-out: effective inhibition constant (KI*),0.11 µM
